# Data as given in publication PMC10215804, “Exploring Alternative Pathways to Target Bacterial Type II Topoisomerases Using NBTI Antibacterials: Beyond Halogen-Bonding Interactions” (Antibiotics, 2023).
# Where two headings read alike, the source gives them in different places.
# Experiments:
# [1] = Metabolic activity assessment (cytotoxicity), CellTiter 96 Aqueous One; type: cell-based; settings: human, 72 h treatment, means of three independent measurements ± SD
# Experimental: HUVEC (ATCC® CRL-1730™) and HepG2 (ATCC® HB-8065™) cell lines were cultured in Dulbecco’s Modified Eagle Medium (DMEM; Sigma-Aldrich, St. Louis, MO, USA) supplemented with 10% heat-deactivated FBS (Gibco, Grand Island, NE, USA), 2 mM L-glutamine, 100 U/mL penicillin, 100 μg/mL streptomycin (all from Sigma-Aldrich, St. Louis, MO, USA) in a humidified chamber at 37 °C and 5% CO2. The experiments were carried out on passages 4–7 for both cell lines. The tested compounds were dissolved in DMSO and further diluted in culture medium to a desired final concentration. The cells were then seeded into 96-well plates at 5 × 10^4 cells/mL (100 μL/well) or 8 × 10^4 cells/mL (100 μL/well) for HUVEC and HepG2, respectively. The cells were then incubated for 24 h to allow attachment onto the wells. The cells were treated with 1 μM and 50 μM of each compound of interest, or the corresponding vehicle as control. […] Their metabolic activity was assessed after 72 h treatment using a CellTiter 96 Aqueous One Solution Cell Proliferation Assay (Promega, Madison, WI, USA), in accordance with the manufacturer’s instructions. The absorbance was measured at 492 nm on an automated microplate reader, Tecan Spark (Tecan Group Ltd., Männedorf, CH, Switzerland). Data are presented as the percentage of metabolic activity of control cells stimulated with vehicle, or as an IC50 value (mean ± SD) from three independent experiments, each conducted in triplicate (for screening) or duplicate (for IC50 determination). IC50 values were calculated using a non-linear regression model and with Graph Pad Prism 9 software.
# [2] = target: T1, E. coli DNA gyrase (Escherichia coli, UniProt P0AES4); test: DNA gyrase supercoiling inhibition assay (high-throughput plate assay); type: biochemical
# T1 construct: purchased Inspiralis (Norwich, UK)
# Experimental: (§1) To determine the IC50 values of the compounds for S. aureus and E. coli, a DNA gyrase supercoiling high-throughput plate assay and a topoIV relaxation high-throughput plate assay were performed. Assay kits and black streptavidin-coated 96-well microtiter plates are available from Inspiralis (Norwich, UK). For pre-screening, an inhibitor concentration of 100 μM was used. […] A nonlinear regression-based fit of the inhibition curves was used, with the log [inhibitor] versus slope of the reaction variables (four parameters) and a symmetric equation. […] To determine IC50 values, two independent repetitions were performed and the average was calculated.
# [3] = target: T2, E. coli topoIV (Escherichia coli, UniProt P0AFI2); test: topoIV relaxation inhibition assay (high-throughput plate assay); type: biochemical
# T2 construct: purchased Inspiralis (Norwich, UK)
# Experimental: as §1
# [4] = target: T3, S. aureus DNA gyrase (Staphylococcus aureus, UniProt P20831); test: biochemical; settings: supercoiling inhibition; mean of two independent measurements ± SD
# T3 construct: purchased Inspiralis (Norwich, UK)
# Experimental: as §1
# [5] = target: T4, S. aureus topoIV (Staphylococcus aureus, UniProt P0C1U9); test: biochemical; settings: relaxation inhibition; mean of two independent measurements ± SD
# T4 construct: purchased Inspiralis (Norwich, UK)
# Experimental: as §1
# [6] = target: T5, human topoisomerase IIα (Homo sapiens, UniProt P11388); test: human topoisomerase II alpha relaxation high-throughput assay (selectivity); type: biochemical; settings: residual activity at 100 µM compound; mean ± SD, two independent experiments; read-out: Human TopoIIα (% RA at 100 µM)
# T5 construct: purchased Inspiralis (Norwich, UK)
# Experimental: For selectivity determination, a human topoisomerase II alpha relaxation high-throughput assay was used. The assay kits and black streptavidin-coated 96-well microtiter plates are available from Inspiralis (Norwich, UK). Two independent measurements were performed with an inhibitory concentration of 100 µM. Raw data were calculated as the mean ± SD percentage of the residual enzyme activity.
# [7] = test system: E. coli N43 (CGSC# 5583); test: MIC, broth microdilution; type: cell-based; settings: Escherichia coli
# Experimental: (§2) For the determination of minimum inhibitory concentrations (MIC), the broth microdilution method was used in 96-well plate format, according to the guidelines of the Clinical and Laboratory Standards Institute and the recommendations of the European Committee on Antimicrobial Susceptibility Testing (EUCAST). The dilutions of the bacterial suspension of the specific bacterial strain, corresponding to the 0.5 McFarland turbidity standard, were prepared with […] Mueller–Hinton broth with TES (Thermo Fisher Scientific) to obtain an end inoculum of 10^5 CFU/mL. The compounds were dissolved in DMSO and mixed with the inoculum. […] The MIC was determined as the lowest concentration of antibiotic that prevented visible bacterial growth. Tetracycline was used as a positive control on each test plate.
# [8] = test system: E. coli ESBL QA-11.3; test: MIC, broth microdilution; type: cell-based; settings: Escherichia coli
# Experimental: as §2
# [9] = test system: E. coli D22; test: MIC, broth microdilution; type: cell-based; settings: Escherichia coli
# Experimental: as §2
# [10] = test system: E. faecalis RDK 057; test: MIC, broth microdilution; type: cell-based; settings: Enterococcus faecalis
# Experimental: as §2
# [11] = test system: K. pneumoniae; test: MIC, broth microdilution; type: cell-based; settings: Klebsiella pneumoniae
# Experimental: as §2
# [12] = test system: E. coli (ATCC 25922); test: MIC, broth microdilution; type: cell-based; settings: Escherichia coli
# Experimental: as §2
# [13] = test system: A. baumannii; test: MIC, broth microdilution; type: cell-based; settings: Acinetobacter baumannii
# Experimental: as §2
# [14] = test system: S. aureus (ATCC 29213); test: MIC, broth microdilution; type: cell-based; settings: Staphylococcus aureus
# Experimental: as §2
# [15] = test system: P. aeruginosa RDK 184; test: MIC, broth microdilution; type: cell-based; settings: Pseudomonas aeruginosa
# Experimental: as §2
# T2 sequence (P20083 whole entry): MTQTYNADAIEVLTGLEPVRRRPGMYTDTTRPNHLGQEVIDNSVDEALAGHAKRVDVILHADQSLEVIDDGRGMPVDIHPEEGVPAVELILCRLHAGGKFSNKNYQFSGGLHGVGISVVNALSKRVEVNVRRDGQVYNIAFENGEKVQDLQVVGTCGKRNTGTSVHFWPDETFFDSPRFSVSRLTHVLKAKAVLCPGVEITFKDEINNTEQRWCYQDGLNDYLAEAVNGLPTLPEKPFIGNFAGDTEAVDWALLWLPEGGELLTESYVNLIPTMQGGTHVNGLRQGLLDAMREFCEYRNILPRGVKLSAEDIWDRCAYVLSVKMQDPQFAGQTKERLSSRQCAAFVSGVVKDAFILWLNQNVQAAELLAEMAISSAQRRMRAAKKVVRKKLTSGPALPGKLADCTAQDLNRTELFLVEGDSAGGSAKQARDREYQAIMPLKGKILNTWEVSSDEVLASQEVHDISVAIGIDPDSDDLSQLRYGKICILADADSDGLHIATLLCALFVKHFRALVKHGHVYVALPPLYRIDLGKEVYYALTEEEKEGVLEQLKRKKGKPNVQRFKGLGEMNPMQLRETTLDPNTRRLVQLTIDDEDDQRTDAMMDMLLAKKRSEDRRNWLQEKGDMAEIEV
# T2 sequence (P0AFI2 whole entry): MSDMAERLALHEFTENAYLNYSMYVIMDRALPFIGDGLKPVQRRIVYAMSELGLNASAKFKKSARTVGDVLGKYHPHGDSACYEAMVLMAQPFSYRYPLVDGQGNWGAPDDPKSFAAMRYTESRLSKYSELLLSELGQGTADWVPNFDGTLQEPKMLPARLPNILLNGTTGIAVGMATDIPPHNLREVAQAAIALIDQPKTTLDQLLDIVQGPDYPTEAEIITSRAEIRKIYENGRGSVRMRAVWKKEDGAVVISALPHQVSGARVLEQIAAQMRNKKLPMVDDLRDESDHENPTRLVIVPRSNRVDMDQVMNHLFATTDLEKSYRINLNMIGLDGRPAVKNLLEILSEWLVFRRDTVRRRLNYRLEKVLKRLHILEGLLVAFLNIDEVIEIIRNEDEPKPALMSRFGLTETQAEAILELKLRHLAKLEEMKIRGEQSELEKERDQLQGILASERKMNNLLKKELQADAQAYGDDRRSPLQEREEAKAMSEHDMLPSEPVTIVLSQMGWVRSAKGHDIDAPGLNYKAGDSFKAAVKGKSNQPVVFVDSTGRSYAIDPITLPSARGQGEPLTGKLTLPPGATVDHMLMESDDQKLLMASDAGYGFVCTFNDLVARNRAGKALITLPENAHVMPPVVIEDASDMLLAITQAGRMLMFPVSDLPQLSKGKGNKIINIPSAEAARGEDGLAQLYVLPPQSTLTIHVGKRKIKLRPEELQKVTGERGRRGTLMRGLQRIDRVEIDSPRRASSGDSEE
# T5 sequence (P11388 whole entry): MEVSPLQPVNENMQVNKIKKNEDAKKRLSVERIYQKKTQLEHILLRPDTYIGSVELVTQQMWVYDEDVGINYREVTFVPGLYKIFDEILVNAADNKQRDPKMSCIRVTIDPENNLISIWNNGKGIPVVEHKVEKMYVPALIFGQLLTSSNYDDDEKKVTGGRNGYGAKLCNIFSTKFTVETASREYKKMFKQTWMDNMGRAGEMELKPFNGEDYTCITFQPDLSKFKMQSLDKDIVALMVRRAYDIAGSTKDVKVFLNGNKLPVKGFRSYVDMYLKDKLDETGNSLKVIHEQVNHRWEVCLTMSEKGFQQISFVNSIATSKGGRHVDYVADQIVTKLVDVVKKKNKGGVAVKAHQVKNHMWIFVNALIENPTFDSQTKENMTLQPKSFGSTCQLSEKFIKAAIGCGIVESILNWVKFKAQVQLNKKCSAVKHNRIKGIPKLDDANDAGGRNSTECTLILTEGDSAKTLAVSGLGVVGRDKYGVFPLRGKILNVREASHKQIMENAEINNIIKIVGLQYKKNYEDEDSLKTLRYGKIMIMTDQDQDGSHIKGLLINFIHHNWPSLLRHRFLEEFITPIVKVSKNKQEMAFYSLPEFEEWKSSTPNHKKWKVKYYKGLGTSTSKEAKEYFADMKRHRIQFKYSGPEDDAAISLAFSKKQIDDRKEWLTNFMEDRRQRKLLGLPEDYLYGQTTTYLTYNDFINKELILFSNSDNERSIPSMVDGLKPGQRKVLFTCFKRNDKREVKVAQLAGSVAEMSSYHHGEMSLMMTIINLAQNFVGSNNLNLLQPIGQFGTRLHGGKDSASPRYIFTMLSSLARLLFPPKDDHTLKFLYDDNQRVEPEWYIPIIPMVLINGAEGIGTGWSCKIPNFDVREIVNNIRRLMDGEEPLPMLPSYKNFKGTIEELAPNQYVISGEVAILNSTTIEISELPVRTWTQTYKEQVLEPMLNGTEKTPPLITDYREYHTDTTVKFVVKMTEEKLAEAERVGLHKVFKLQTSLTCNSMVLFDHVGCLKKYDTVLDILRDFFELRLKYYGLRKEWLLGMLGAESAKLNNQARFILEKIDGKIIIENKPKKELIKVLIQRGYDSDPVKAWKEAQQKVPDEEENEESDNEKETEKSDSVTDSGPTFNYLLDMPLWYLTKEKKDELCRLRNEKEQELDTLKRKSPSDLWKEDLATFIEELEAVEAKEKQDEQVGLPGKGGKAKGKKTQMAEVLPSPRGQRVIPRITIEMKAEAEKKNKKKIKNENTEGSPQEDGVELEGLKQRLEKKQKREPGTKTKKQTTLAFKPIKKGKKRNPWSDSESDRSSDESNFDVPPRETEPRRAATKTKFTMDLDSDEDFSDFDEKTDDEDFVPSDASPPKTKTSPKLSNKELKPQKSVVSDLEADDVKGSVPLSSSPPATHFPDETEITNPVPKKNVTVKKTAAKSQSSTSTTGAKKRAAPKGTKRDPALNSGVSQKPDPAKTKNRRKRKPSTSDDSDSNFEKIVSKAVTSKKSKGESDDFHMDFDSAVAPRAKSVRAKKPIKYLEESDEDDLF
# T3 sequence (P20831 whole entry): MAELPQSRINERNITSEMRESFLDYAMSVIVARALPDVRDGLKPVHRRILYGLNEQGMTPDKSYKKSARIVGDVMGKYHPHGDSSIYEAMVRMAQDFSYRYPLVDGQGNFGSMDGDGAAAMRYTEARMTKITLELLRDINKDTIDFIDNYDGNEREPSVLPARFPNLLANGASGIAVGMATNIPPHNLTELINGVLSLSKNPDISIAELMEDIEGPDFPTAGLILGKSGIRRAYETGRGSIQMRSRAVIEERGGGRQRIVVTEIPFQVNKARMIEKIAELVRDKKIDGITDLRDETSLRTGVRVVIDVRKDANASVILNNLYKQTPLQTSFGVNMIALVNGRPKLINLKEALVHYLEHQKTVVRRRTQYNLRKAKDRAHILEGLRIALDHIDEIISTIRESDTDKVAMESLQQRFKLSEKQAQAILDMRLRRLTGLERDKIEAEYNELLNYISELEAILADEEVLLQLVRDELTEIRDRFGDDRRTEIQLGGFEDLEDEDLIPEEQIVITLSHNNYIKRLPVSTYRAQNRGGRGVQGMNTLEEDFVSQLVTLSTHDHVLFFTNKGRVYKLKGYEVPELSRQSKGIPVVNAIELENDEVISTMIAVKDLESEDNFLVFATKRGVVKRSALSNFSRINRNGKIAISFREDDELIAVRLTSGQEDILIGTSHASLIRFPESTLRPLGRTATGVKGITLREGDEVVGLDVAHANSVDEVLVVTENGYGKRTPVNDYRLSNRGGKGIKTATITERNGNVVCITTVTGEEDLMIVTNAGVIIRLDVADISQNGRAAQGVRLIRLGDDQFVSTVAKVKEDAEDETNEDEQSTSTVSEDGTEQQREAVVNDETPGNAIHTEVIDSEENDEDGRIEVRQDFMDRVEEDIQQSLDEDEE
# T3 sequence (P0A0K8 whole entry partner): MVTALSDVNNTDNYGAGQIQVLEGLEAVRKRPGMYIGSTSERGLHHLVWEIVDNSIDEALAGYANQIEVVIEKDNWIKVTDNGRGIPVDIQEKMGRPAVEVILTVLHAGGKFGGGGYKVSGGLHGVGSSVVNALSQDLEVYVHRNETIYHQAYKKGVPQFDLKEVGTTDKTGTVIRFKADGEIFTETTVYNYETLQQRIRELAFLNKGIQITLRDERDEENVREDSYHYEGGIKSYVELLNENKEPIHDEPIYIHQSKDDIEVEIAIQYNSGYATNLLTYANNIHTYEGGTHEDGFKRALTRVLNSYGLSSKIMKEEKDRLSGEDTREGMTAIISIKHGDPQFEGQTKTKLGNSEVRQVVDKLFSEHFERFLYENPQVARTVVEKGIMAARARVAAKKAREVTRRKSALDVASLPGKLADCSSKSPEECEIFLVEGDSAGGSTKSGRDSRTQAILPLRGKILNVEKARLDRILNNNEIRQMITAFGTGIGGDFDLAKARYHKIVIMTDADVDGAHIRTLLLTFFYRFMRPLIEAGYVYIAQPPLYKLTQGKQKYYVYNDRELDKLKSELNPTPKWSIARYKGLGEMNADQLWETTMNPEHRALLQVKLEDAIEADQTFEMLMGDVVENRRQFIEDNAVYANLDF
structure (smiles),measurement,setting,value
"COc1ccc2nccc(OCC3CCC(NCc4ccc(N)cc4)CC3)c2n1 (stereo not shown) [Compound 10, 4-(((4-(((6-methoxy-1,5-naphthyridin-4-yl)oxy)methyl)cyclohexyl)amino)methyl)aniline]",IC50 at 72 h,[1]; HUVEC cells (ATCC CRL-1730),> 50 µM
same,IC50 at 72 h,[1]; HepG2 cells (ATCC HB-8065),> 50 µM
same,IC50,[2],> 100 µM
same,IC50,[3],> 100 µM
same,IC50,[4],> 100 µM
same,IC50,[5],> 100 µM
same,remaining activity at 100 µM,[6],99 ± 1%
same,MIC,"[7]; 20 h, read-out: MIC (μM) E. coli N43",> 328 µM
same,MIC,[7]; read-out: MIC E. coli N43 (CGSC# 5583),> 128 mg/L
same,MIC,"[8]; ESBLQA11.3, 20 h, read-out: MIC (μM) E. coli ESBL QA:11.3",> 328 µM
same,MIC,"[8]; ESBLQA11.3, read-out: MIC E. coli ESBL QA-11.3",> 128 mg/L
same,MIC,"[9]; D22, 20 h, read-out: MIC (μM) E. coli D22",> 328 µM
same,MIC,"[9]; D22, read-out: MIC E. coli D22",> 128 mg/L
same,MIC,"[10]; RDK057, read-out: MIC (μM) E. faecalis DRK 057",> 328 µM
same,MIC,"[10]; RDK057, read-out: MIC E. faecalis RDK 057",> 128 mg/L
same,MIC,"[11]; 20 h, read-out: MIC (μM) K. pneumoniae",> 328 µM
same,MIC,[11]; read-out: MIC K. pneumoniae,> 128 mg/L
same,MIC,"[12]; ATCC25922, 20 h, read-out: MIC (μM) E. coli (ATCC 25922)",> 328 µM
same,MIC,"[12]; ATCC25922, read-out: MIC E. coli (ATCC 25922)",> 128 mg/L
same,MIC,"[13]; 20 h, read-out: MIC (μM) A. baumannii",> 328 µM
same,MIC,[13]; read-out: MIC A. baumannii,> 128 mg/L
same,MIC,"[14]; ATCC29213, 20 h, read-out: MIC (μM) S. aureus (ATCC 29213)",> 328 µM
same,MIC,"[14]; ATCC29213, read-out: MIC S. aureus (ATCC 29213)",> 128 mg/L
same,MIC,"[15]; RDK184, 20 h, read-out: MIC (μM) P. aeruginosa RDK 184",> 328 µM
same,MIC,"[15]; RDK184, read-out: MIC P. aeruginosa RDK 184",> 128 mg/L
